Test results from patent publication US12121530B2, “Composition and methods for treating articulating joint disorders with nucleoside reverse transcriptase inhibitors” (RHODE ISLAND HOSPITAL, priority 2018, dated 2024).

What was measured:
HIV patients = assay: summary data of NRTI on OA in HIV patients; type: in vivo, human; conditions: for strict OA (ICD-9-CM 715) / expanded OA (ICD-9-CM 715, 716 or 719): HIV patients; for strict OA (ICD-9-CM 715): older than 50, dosage dependent, both male and female
Excerpt: Medical provider diagnoses of ICD-9-CM 715 [osteoarthrosis and allied disorders] include the following definitions: 1) strict=ICD-9-CM 715; 2) expanded=ICD-9-CM 715, 716 [other and unspecified arthropathies], OR 719 [other and unspecified disorders of joint]); and 3) probable=strict OR expanded+respondent-reported prior diagnosis of OA or other arthritis excluding rheumatoid arthritis (RA).

Line-1 = assay: siRNA against Line-1 in mouse primary chondrocytes, RT-qPCR; type: cell-based; conditions: for Line-1 expression: siRNA screening, versus scramble siRNA
Protocol: Cells were seeded onto desired size plates to reach 70-90% confluence and transfected with miR-365 mimic or miRNA mimic negative control or miR-365 inhibitor or inhibitor negative control (Dharmacon®, Lafayette, Colo., USA). Lipofectamine 3000 (Invitrogen®, Waltham, Mass., USA) was used as transfection reagents. Medium is changed 24 hrs after transfection. 48 hrs post transfection, cells were lysated in either QIAzol for RNA purification and real-time PCR analysis or ice-cold lysis buffer containing protease inhibitor and phosphatase inhibitor for western blot analysis. MiR-365 mimic, miRNA mimic negative control, miR-365 inhibitor and inhibitor negative control were typically used at a final concentration of 25 nM unless otherwise stated.
Both miRNA and mRNA were extracted using miRNeasy Mini Kit (Qiagen®, Germantown, Md., USA) and reversely transcribed using miScriptIIRT Kit (Qiagen®, Germantown, Md., USA) according to manufacturer's instruction. qPCR was performed using SYBR Green PCR master mix (Qiagen®, Germantown, Md., USA) on a Bio-Rad CFX96 real-time PCR detection system (Bio-Rad®, Hercules, Calif., USA). Amplification conditions are as follows: 95° C. for 10 min, 40 cycles of 95° C. for 10″, 55° C. for 30″, and 72° C. for 30″. 18S ribosomal or GAPDH RNA was used as an internal control gene to normalize the mRNAs level. The ubiquitously expressed snRNA U6 was used as an endogenous control for miRNAs level. Primers were synthesized by Integrated DNA Technologies (http://www.idtdna.com). The primers for miR-365 were purchased from Qiagen. Fold changes of mRNA and miRNAs were calculated by the 2^^(ΔΔCt) method and normalized to 18S/GAPDH or U6 snRNA, respectively.

[1] = mouse PC transfected with miR-365 mimic

Row | Compound | strict OA (ICD-9-CM 715) (HIV patients) | expanded OA (ICD-9-CM 715, 716 or 719) (HIV patients) | Line-1 expression (Line-1) | further results
1 | Nc1nc(NC2CC2)c2ncn([C@H]3C=C[C@@H](CO)C3)c2n1 [ABC, abacavir] | inhibiting |  |  | 
2 | Cc1cn([C@H]2C=C[C@@H](CO)O2)c(=O)[nH]c1=O [D4T, 2′,3′-didehydro-2′,3′-dideoxythymidine] | inhibiting | inhibiting |  | extent of inhibition of strict OA and expanded OA (HIV patients; among NRTIs): highest extent of inhibition
3 | O=c1nc[nH]c2c1ncn2[C@H]1CC[C@@H](CO)O1 [DDL, 2′,3′-dideoxyinosine] | inhibiting | inhibiting |  | toxicity (HIV patients; group of less than 40 years old): No toxicity
4 | Cc1cn([C@H]2C[C@H](N=[N+]=[N-])[C@@H](CO)O2)c(=O)[nH]c1=O [ZDV, Zidovudine] | inhibiting | partially inhibiting |  | 
5 | siLine-1C: siRNA against Line-1, AAGCCACTATTACTCTGATAC (SEQ ID NO: 95) (AAGCCACTATTACTCTGATAC; listed as DNA, chemistry not given here) |  |  | significantly suppressed | 
6 | siLine-1D: siRNA against Line-1, AAGGTCAAATCTAAGTGGATC (SEQ ID NO: 96) (AAGGTCAAATCTAAGTGGATC; listed as DNA, chemistry not given here) |  |  | significantly suppressed | miR-365-elicited gene expression changes (L1, Adamts5, Mmp3, Ihh, Col2a1, Acan) (Line-1; co-transfected with miR-365 (FIG. 1D-1I)): abolished; miR-365 led induction of Ihh (Line-1; [1]): successfully rescued; miR-365 led induction of Line-1 (Line-1; [1]): successfully rescued
7 | siLine-1E: siRNA against Line-1, AAGTTTCTGCAAGGCAAAAGA (SEQ ID NO: 97) (AAGTTTCTGCAAGGCAAAAGA; listed as DNA, chemistry not given here) |  |  | significantly suppressed | 
